Results taken from US20040121946A9, “Inducing cellular immune responses to her2/neu using peptide and nucleic acid compositions” (priority 2002, published 2004).
pIC50: −log10 of the molar value. Where a SMILES comes first, the peptide text is derived from it. Where no end group is shown, it is not given here. [ ]: non-standard residue; d: D form. Abu = CC[C@H](N)C(=O)O

Assays:
[1] = system: peptide-pulsed target cells and transfected cells endogenously expressing the antigen; test: Recall CTL responses of PBMCs from ovarian cancer patients; type: cell-based, human; settings: for CTL Tumor / CTL Wildtype: data from ovarian cancer patients; for recognition by CTLs from cancer patient PBMCs: two patients with ovarian cancer, peptide-pulsed targets and transfected cells
[2] = molecular target: HLA-A*0301 (Homo sapiens, UniProt P04439); type: binding; settings: Table XXIII, HLA-A3 supermotif-bearing peptides
[3] = molecular target: HLA-A*3301 (Homo sapiens, UniProt P04439, A270S/D185E/E176V/E277Q/E87N/F33T/G231S/H175R/I121M/I218V/I322F/K168Q/K210R/L300P/L318F/M331R/P217A/Q86R/Q94H/R138Q/T323A/T345S/T97I/V358M/Y195H); type: binding; settings: Table XXIII, HLA-A3 supermotif-bearing peptides
[4] = molecular target: HLA-A*3101 (Homo sapiens, UniProt P04439, A270S/D185E/E176V/E277Q/F33T/G231S/G80R/H175R/I121M/I218V/I322F/K168Q/L300P/L318F/M331R/P217A/Q94H/R138Q/T323A/T345S/T97I/V358M); type: binding; settings: Table XXIII, HLA-A3 supermotif-bearing peptides
[5] = molecular target: HLA-A*6801 (Homo sapiens, UniProt P04439, A269V/D185E/E176V/E277Q/E87N/F33Y/G231S/I121M/I166T/I218V/L180W/L300P/L318F/N151K/P208A/P217A/Q86R/R169H/T345S); type: binding; settings: Table XXIII, HLA-A3 supermotif-bearing peptides
[6] = molecular target: HLA-A*1101 (Homo sapiens, UniProt P04439, A114D/D185E/E176A/F33Y/L180Q/S129P/T187R); type: binding; settings: Table XXIII, HLA-A3 supermotif-bearing peptides
[7] = system: A3-supertype alleles (A*0301, A*1101, A*3101, A*3301, A*6801); test: A3-supertype cross-reactive binding; parameters: species or system human; settings: of five A3-supertype alleles tested

Sequence of HLA-A*1101 (P04439 25-365 limits assumed, stated change not applied): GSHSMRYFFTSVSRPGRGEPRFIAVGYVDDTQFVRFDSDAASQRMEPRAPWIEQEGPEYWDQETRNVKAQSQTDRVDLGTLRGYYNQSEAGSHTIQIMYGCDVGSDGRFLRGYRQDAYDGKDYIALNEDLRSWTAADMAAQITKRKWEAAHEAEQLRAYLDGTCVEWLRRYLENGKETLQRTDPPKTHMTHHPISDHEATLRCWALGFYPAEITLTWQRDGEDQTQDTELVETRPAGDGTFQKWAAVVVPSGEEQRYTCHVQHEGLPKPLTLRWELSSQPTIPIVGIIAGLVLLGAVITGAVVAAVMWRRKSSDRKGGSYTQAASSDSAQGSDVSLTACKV

| Molecule | pIC50 [2] | pIC50 [3] | pIC50 [4] | pIC50 [5] | pIC50 [6] | No. of A3 Alleles Crossbound [7] | CTL Tumor [1] | CTL Wildtype [1] | recognition by CTLs from cancer patient PBMCs [1] |
| --- | --- | --- | --- | --- | --- | --- | --- | --- | --- |
| CC(C)C[C@H](NC(=O)[C@@H](N)Cc1c[nH]cn1)C(=O)N[C@@H](Cc1ccc(O)cc1)C(=O)N[C@@H](CCC(N)=O)C(=O)NCC(=O)N[C@@H](CS)C(=O)N[C@@H](CCC(N)=O)C(=O)N[C@H](C(=O)N[C@H](C(=O)O)C(C)C)C(C)C | – | – | – | – | – | – | 1/2 | 2/2 | – |
| CC[C@H](C)[C@H](N)C(=O)N[C@@H](CC(C)C)C(=O)N[C@@H](Cc1c[nH]cn1)C(=O)N[C@@H](CC(N)=O)C(=O)NCC(=O)N[C@@H](C)C(=O)N[C@@H](Cc1ccc(O)cc1)C(=O)N[C@@H](CO)C(=O)N[C@@H](CC(C)C)C(=O)O | – | – | – | – | – | – | 2/2 | 2/2 | – |
| CSCC[C@H](NC(=O)[C@@H](N)C(C)C)C(=O)N[C@@H](C)C(=O)NCC(=O)N[C@H](C(=O)NCC(=O)N[C@@H](CO)C(=O)N1CCC[C@H]1C(=O)N[C@@H](Cc1ccc(O)cc1)C(=O)N[C@H](C(=O)O)C(C)C)C(C)C | – | – | – | – | – | – | 1/2 | 1/2 | – |
| CC(C)C[C@H](NC(=O)[C@@H](N)Cc1c[nH]cn1)C(=O)N[C@@H](Cc1ccc(O)cc1)C(=O)N[C@@H](CCC(N)=O)C(=O)NCC(=O)N[C@@H](CS)C(=O)N[C@@H](CCC(N)=O)C(=O)N[C@H](C(=O)N[C@H](C(=O)O)C(C)C)C(C)C [Her2/neu.48] | – | – | – | – | – | – | – | – | recognized in 2 donors |
| CC[C@H](C)[C@H](NC(=O)[C@H](CC(C)C)NC(=O)[C@@H](N)C(C)C)C(=O)N[C@@H](CCC(N)=O)C(=O)N[C@@H](CCCNC(=N)N)C(=O)N[C@@H](CC(N)=O)C(=O)N1CCC[C@H]1C(=O)N[C@@H](CCC(N)=O)C(=O)N[C@@H](CC(C)C)C(=O)O [Her2/neu.153] | – | – | – | – | – | – | – | – | recognized peptide-pulsed targets only |
| CC[C@H](C)[C@H](NC(=O)[C@@H](N)CCCCN)C(=O)N[C@@H](Cc1ccccc1)C(=O)NCC(=O)N[C@@H](CO)C(=O)N[C@@H](CC(C)C)C(=O)N[C@@H](C)C(=O)N[C@@H](Cc1ccccc1)C(=O)N[C@@H](CC(C)C)C(=O)O [Her2/neu.369] | – | – | – | – | – | – | – | – | recognized in 2 donors |
| CC[C@H](C)[C@H](N)C(=O)N[C@@H](CC(C)C)C(=O)N[C@@H](Cc1c[nH]cn1)C(=O)N[C@@H](CC(N)=O)C(=O)NCC(=O)N[C@@H](C)C(=O)N[C@@H](Cc1ccc(O)cc1)C(=O)N[C@@H](CO)C(=O)N[C@@H](CC(C)C)C(=O)O [Her2/neu.435] | – | – | – | – | – | – | – | – | recognized in 2 donors |
| CC[C@H](C)[C@H](NC(=O)CNC(=O)[C@H](Cc1ccccc1)NC(=O)[C@@H](NC(=O)[C@@H](NC(=O)CNC(=O)[C@H](CC(C)C)NC(=O)[C@@H](NC(=O)[C@@H](N)C(C)C)C(C)C)C(C)C)C(C)C)C(=O)O [Her2/neu.665] | – | – | – | – | – | – | – | – | recognized by CTLs from only one of the two patients |
| CC(C)C[C@H](NC(=O)[C@H](CC(C)C)NC(=O)[C@@H](N)CCCNC(=N)N)C(=O)N[C@@H](CCC(N)=O)C(=O)N[C@@H](CCC(=O)O)C(=O)N[C@H](C(=O)N[C@@H](CCC(=O)O)C(=O)N[C@@H](CC(C)C)C(=O)N[C@H](C(=O)O)C(C)C)[C@@H](C)O [Her2/neu.689] | – | – | – | – | – | – | – | – | is also an epitope |
| CSCC[C@H](NC(=O)[C@@H](N)C(C)C)C(=O)N[C@@H](C)C(=O)NCC(=O)N[C@H](C(=O)NCC(=O)N[C@@H](CO)C(=O)N1CCC[C@H]1C(=O)N[C@@H](Cc1ccc(O)cc1)C(=O)N[C@H](C(=O)O)C(C)C)C(C)C [Her2/neu.773] | – | – | – | – | – | – | – | – | recognized by CTLs from only one of the two patients |
| CC(C)C[C@H](NC(=O)[C@H](CCC(N)=O)NC(=O)[C@@H](NC(=O)[C@@H](NC(=O)[C@H](CO)NC(=O)[C@@H](NC(=O)[C@H](CC(C)C)NC(=O)[C@@H](N)CS)[C@@H](C)O)[C@@H](C)O)C(C)C)C(=O)N[C@H](C(=O)O)C(C)C [Her2/neu.789] | – | – | – | – | – | – | – | – | recognized peptide-pulsed targets only |

Continued, in another order:

| pIC50 [2] | pIC50 [3] | pIC50 [4] | pIC50 [5] | pIC50 [6] | No. of A3 Alleles Crossbound [7] | Molecule | CTL Tumor [1] | CTL Wildtype [1] | recognition by CTLs from cancer patient PBMCs [1] |
| --- | --- | --- | --- | --- | --- | --- | --- | --- | --- |
| 5.07 | 7.12 | 6.22 | 7.38 | 6.54 | – | CC[C@H](C)[C@H](NC(=O)[C@H](CC(=O)O)NC(=O)[C@H](CCCCN)NC(=O)[C@H](Cc1c[nH]c2ccccc12)NC(=O)[C@H](CC(C)C)NC(=O)[C@@H](NC(=O)[C@@H](N)[C@@H](C)O)C(C)C)C(=O)N[C@@H](Cc1ccccc1)C(=O)N[C@@H](Cc1c[nH]cn1)C(=O)N[C@@H](CCCNC(=N)N)C(=O)O [Her2/neu.166.V2R10] | – | – | – |
| 6.84 | 7.80 | 8.22 | 7.82 | 6.54 | – | CC[C@H](C)[C@H](N)C(=O)N[C@H](C(=O)N[C@@H](Cc1c[nH]c2ccccc12)C(=O)N[C@@H](CCCCN)C(=O)N[C@@H](CC(=O)O)C(=O)N[C@H](C(=O)N[C@@H](Cc1ccccc1)C(=O)N[C@@H](Cc1c[nH]cn1)C(=O)N[C@@H](CCCNC(=N)N)C(=O)O)[C@@H](C)CC)C(C)C [Her2/neu.167.V2R9] | – | – | – |
| 7.64 | 6.07 | 6.61 | 6.75 | 7.40 | – | CC[C@H](C)[C@H](N)C(=O)N[C@H](C(=O)N[C@@H](Cc1c[nH]c2ccccc12)C(=O)N[C@@H](CCCCN)C(=O)N[C@@H](CC(=O)O)C(=O)N[C@H](C(=O)N[C@@H](Cc1ccccc1)C(=O)N[C@@H](Cc1c[nH]cn1)C(=O)N[C@@H](CCCCN)C(=O)O)[C@@H](C)CC)C(C)C [Her2/neu.167.V2] | – | – | – |
| 7.41 | 6.01 | 7.09 | 5.76 | 7.72 | – | CC[C@H](C)[C@H](N)C(=O)N[C@@H](CC(C)C)C(=O)N[C@@H](Cc1c[nH]c2ccccc12)C(=O)N[C@@H](CCCCN)C(=O)N[C@@H](CC(=O)O)C(=O)N[C@H](C(=O)N[C@@H](Cc1ccccc1)C(=O)N[C@@H](Cc1c[nH]cn1)C(=O)N[C@@H](CCCCN)C(=O)O)[C@@H](C)CC [Her2/neu.167] | – | – | – |
| 7.62 | < 5.00 | < 5.00 | 8.14 | 7.54 | 3 | CC[C@H](NC(=O)CNC(=O)CNC(=O)[C@H](C)NC(=O)[C@H](CC)NC(=O)[C@@H](NC(=O)[C@@H](N)[C@@H](C)O)C(C)C)C(=O)N[C@@H](C)C(=O)N[C@@H](CCCCN)C(=O)O [Her2/neu.218.B3B7K9] (H-TV[Abu]AGG[Abu]AK-OH) | – | – | – |
| 6.50 | 6.62 | 6.61 | 8.10 | 6.95 | 5 | CC[C@H](NC(=O)CNC(=O)CNC(=O)[C@H](C)NC(=O)[C@H](CC)NC(=O)[C@@H](NC(=O)[C@@H](N)[C@@H](C)O)C(C)C)C(=O)N[C@@H](C)C(=O)N[C@@H](CCCNC(=N)N)C(=O)O [Her2/neu.218.B3B7] (H-TV[Abu]AGG[Abu]AR-OH) | – | – | – |
| < 5.00 | 6.49 | 6.89 | 7.08 | 6.58 | 4 | CC(C)[C@H](NC(=O)[C@@H](N)[C@@H](C)O)C(=O)N[C@@H](CS)C(=O)N[C@@H](C)C(=O)NCC(=O)NCC(=O)N[C@@H](CS)C(=O)N[C@@H](C)C(=O)N[C@@H](CCCNC(=N)N)C(=O)O [Her2/neu.218] | – | – | – |
| 8.41 | 5.68 | 6.56 | 7.92 | 6.89 | 4 | CC[C@H](C)[C@H](N)C(=O)N[C@H](C(=O)N[C@@H](Cc1c[nH]c2ccccc12)C(=O)N[C@@H](CC(C)C)C(=O)NCC(=O)N[C@@H](CC(C)C)C(=O)N[C@@H](CCCNC(=N)N)C(=O)N[C@@H](CO)C(=O)N[C@@H](CC(C)C)C(=O)N[C@@H](CCCCN)C(=O)O)C(C)C [Her2/neu.450.V2K10] | – | – | – |
| 6.63 | 6.71 | 7.96 | 8.14 | – | 4 | CC[C@H](C)[C@H](N)C(=O)N[C@H](C(=O)N[C@@H](Cc1c[nH]c2ccccc12)C(=O)N[C@@H](CC(C)C)C(=O)NCC(=O)N[C@@H](CC(C)C)C(=O)N[C@@H](CCCNC(=N)N)C(=O)N[C@@H](CO)C(=O)N[C@@H](CC(C)C)C(=O)N[C@@H](CCCNC(=N)N)C(=O)O)C(C)C [Her2/neu.450.V2] | – | – | – |
| – | 5.58 | 4.52 | 7.14 | 7.06 | 2 | CC(C)C[C@H](NC(=O)[C@@H]1CCCN1C(=O)[C@@H](NC(=O)[C@H](C)N)C(C)C)C(=O)N[C@@H](CC(=O)O)C(=O)N[C@@H](CO)C(=O)N[C@H](C(=O)N[C@@H](Cc1ccccc1)C(=O)N[C@@H](Cc1ccc(O)cc1)C(=O)N[C@@H](CCCNC(=N)N)C(=O)O)[C@@H](C)O [Her2/neu.997.V2] | – | – | – |
| 5.13 | 6.71 | – | 8.44 | 5.88 | 3 | HVVPWDQLFR [Her2/neu.478.V2] | – | – | – |
| 6.59 | 6.16 | 6.31 | 6.70 | 8.77 | – | TILWKDIFHK [Her2/neu.166] | – | – | – |
